According to patent US20220372585A1, “Sensors for Aromatic Compounds and Methods of Making and Using Same” (Washington University, priority 2021, published 2022):
Several values for one entry are separate records, joined by “and”; a condition that tells them apart may be missing. Equal values may be shown once. Entries after “also recorded” stand apart in the source; their conditions may differ.

Assays:
Assay type in all cases: cell-based, E. coli
[1] = target: T1, E274Q+T14G TyrR (Escherichia coli, UniProt P07604, E274Q/T14G); assay: PtyrP-GFP reporter, E274Q+T14G TyrR (pAGR156) in EcN
T1 construct: expressed in transfected cells; host or cells: E. coli Nissle 1917 (EcN), plasmid pAGR156
Method: (§1) Everything but (Eb) medium was prepared by supplementing M9 minimal medium with 1 mM MgSO4, […]), 0.4% w/v glucose, and all non-aromatic amino acids (0.8 mM alanine, 5 mM arginine, 0.4 mM asparagine, 0.4 mM aspartate, 0.1 mM cysteine, 0.6 mM glutamate, 0.6 mM glutamine, 0.8 mM glycine, 0.2 mM histidine, 0.4 mM isoleucine, 0.8 mM leucine, 0.4 mM lysine, 0.2 mM methionine, 0.4 mM proline, 10 mM serine, 0.4 mM threonine, and 0.6 mM valine). […] Experimental cultures were prepared by diluting overnight cultures 200× into 0.6 mL fresh Eb medium supplemented with the respective ligands (Phe and Tyr) in 2 mL 96-deep well plates (Eppendorf, Hamburg, Germany). Cultures were grown for 8 h at 37° C. and 250 rpm before sampled for fluorimetry or flow cytometry analysis. All medium was supplemented with the relevant antibiotics for plasmid maintenance (34 mg/ml chloramphenicol and 100 mg/ml spectinomycin).
(§2) […] culture samples were collected and transferred to 96-well assay microplates (clear, flat bottom black, Greiner Bio-One). The fluorescence and culture absorbance (Abs) were measured using a Tecan microplate reader (Infinite M200 Pro) as previously described. The fluorescence of GFP was measured with an excitation at 483 nm and emission at 530 nm. The Abs of the samples was measured at 600 nm. The measured fluorescence was normalized by dividing by the Abs and subtracting the same ratio obtained from non-fluorescent wild-type cells (Equation 1).
(§3) Flow cytometry was performed as previously described. […] Cytometry data was gated by forward and side scatter.

[2] = target: T2, E274Q TyrR with T14V and D103S combined (Escherichia coli, UniProt P07604, D103S/E274Q/T14V); assay: PtyrP-GFP reporter, E274Q TyrR with both T14V and D103S mutations combined; conditions: both mutations (T14V, D103S) combined in E274Q TyrR
T2 construct: tyrR (WT); expressed in transfected cells; host or cells: E. coli Nissle 1917 (EcN)
Method: as §1, with “All medium was supplemented with the relevant antibiotics for plasmid maintenance (34 mg/ml chloramphenicol and 100 mg/ml spectinomycin).” left out
as §2, with “1). […]” for “1).”

[3] = target: T3, E274Q+D103H TyrR (Escherichia coli, UniProt P07604, D103H/E274Q); assay: PtyrP-GFP reporter, E274Q+D103H TyrR (pAGR158) in EcN
T3 construct: expressed in transfected cells; host or cells: E. coli Nissle 1917 (EcN), plasmid pAGR158
Method: as §1, §2, §3

[4] = target: T4, E274Q+L11G TyrR (Escherichia coli, UniProt P07604, E274Q/L11G); assay: PtyrP-GFP reporter, E274Q+L11G TyrR (pAGR155) in EcN
T4 construct: expressed in transfected cells; host or cells: E. coli Nissle 1917 (EcN), plasmid pAGR155
Method: as §1, §2, §3

[5] = target: T5, E274Q+C7V TyrR (Escherichia coli, UniProt P07604, C7V/E274Q); assay: PtyrP-GFP reporter, E274Q+C7V TyrR (pAGR160) in EcN
T5 construct: expressed in transfected cells; host or cells: E. coli Nissle 1917 (EcN), plasmid pAGR160
Method: as §1, §2, §3

[6] = target: T6, R10F TyrR (Escherichia coli, UniProt P07604, R10F); assay: cell-based; conditions: ligand alone, listed as Phe
T6 construct: expressed in transfected cells; host or cells: E. coli Nissle 1917 (EcN), plasmid pAGR473
Method: as §1, §2, §3

[7] = target: T7, E274Q+T14V TyrR (Escherichia coli, UniProt P07604, E274Q/T14V); assay: cell-based
T7 construct: expressed in transfected cells; host or cells: E. coli Nissle 1917 (EcN), plasmid pAGR157
Method: as §1, §2, §3

[8] = target: T8, wild-type TyrR (Escherichia coli, UniProt P07604); assay: cell-based
T8 construct: tyrR (WT); expressed in transfected cells; host or cells: E. coli Nissle 1917 (EcN)
Method: as §1, §2, §3

[9] = target: T9, E274Q+D103S TyrR (Escherichia coli, UniProt P07604, D103S/E274Q); assay: cell-based
T9 construct: expressed in transfected cells; host or cells: E. coli Nissle 1917 (EcN), plasmid pAGR159
Method: as §1, §2, §3

[10] = target: T10, E274Q TyrR (Escherichia coli, UniProt P07604, E274Q); assay: cell-based
T10 construct: expressed in transfected cells; host or cells: E. coli Nissle 1917 (EcN), plasmid pAGR102
Method: as §1, §2, §3

[11] = E274Q+T14G TyrR, pAGR156, FIG. 10C, 8 h
[12] = E274Q+D103H TyrR, pAGR158, FIG. 10D, 8 h
[13] = E274Q+L11G TyrR, pAGR155, FIG. 10B, 8 h
[14] = E274Q+C7V TyrR, pAGR160, FIG. 10A, 8 h
[15] = wild-type TyrR, pAGR010, FIG. 1C, 8 h

T5 sequence (P07604 whole entry C7V/E274Q): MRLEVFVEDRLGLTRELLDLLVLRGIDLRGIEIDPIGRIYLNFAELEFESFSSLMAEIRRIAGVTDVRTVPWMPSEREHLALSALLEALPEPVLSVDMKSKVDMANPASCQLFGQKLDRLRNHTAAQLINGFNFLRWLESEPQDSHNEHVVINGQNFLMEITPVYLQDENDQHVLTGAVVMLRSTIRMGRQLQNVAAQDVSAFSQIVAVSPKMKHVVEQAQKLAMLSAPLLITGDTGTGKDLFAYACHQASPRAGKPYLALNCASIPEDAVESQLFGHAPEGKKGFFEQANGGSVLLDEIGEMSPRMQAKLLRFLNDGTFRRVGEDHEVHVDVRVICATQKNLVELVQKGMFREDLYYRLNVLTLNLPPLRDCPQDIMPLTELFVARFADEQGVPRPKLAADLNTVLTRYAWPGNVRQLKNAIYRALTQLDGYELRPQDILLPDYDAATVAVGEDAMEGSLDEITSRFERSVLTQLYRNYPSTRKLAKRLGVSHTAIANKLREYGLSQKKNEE
T3 sequence (P07604 whole entry D103H/E274Q): as the sequence (P07604 whole entry C7V/E274Q) above, with V7C, D103H counted along it
T7 sequence (P07604 whole entry T14V/E274Q): as the sequence (P07604 whole entry C7V/E274Q) above, with V7C, T14V counted along it
T8 sequence (P07604 whole entry): as the sequence (P07604 whole entry C7V/E274Q) above, with V7C, Q274E counted along it
T9 sequence (P07604 whole entry D103S/E274Q): as the sequence (P07604 whole entry C7V/E274Q) above, with V7C, D103S counted along it
T4 sequence (P07604 whole entry L11G/E274Q): as the sequence (P07604 whole entry C7V/E274Q) above, with V7C, L11G counted along it
T1 sequence (P07604 whole entry T14G/E274Q): as the sequence (P07604 whole entry C7V/E274Q) above, with V7C, T14G counted along it
T10 sequence (P07604 whole entry E274Q): as the sequence (P07604 whole entry C7V/E274Q) above, with V7C counted along it
T6 sequence (P07604 whole entry R10F): as the sequence (P07604 whole entry C7V/E274Q) above, with V7C, R10F, Q274E counted along it
T2 sequence (P07604 whole entry T14V/D103S/E274Q): as the sequence (P07604 whole entry C7V/E274Q) above, with V7C, T14V, D103S counted along it

Compound `N[C@@H](Cc1ccccc1)C(=O)O` [Phenylalanine, phenylalanine] has an EC50 [1] of 37 µM, an Fmax [1, 11] of 12400 and a Fmin [1, 11] of 1430. The “n (Hill coefficient)” value [1, 11] was 2.4, the “response of PtyrP” value [2] was “eliminated” and the EC50 [3] was 110 µM. The Fmax [3, 12] was 11800, the Fmin [3, 12] was 2150 and the “n (Hill coefficient)” value [3, 12] was 1. The EC50 [4] was 45 µM, the Fmax [4, 13] was 12900 and the Fmin [4, 13] was 5570. The “n (Hill coefficient)” value [4, 13] was 2.2, the EC50 [5] was 46 µM and the Fmax [5, 14] was 10800. The Fmin [5, 14] was 1120, the “n (Hill coefficient)” value [5, 14] was 2.5 and the “response of PtyrP” value [6] was “lack of response; also recorded: no significant response”. The EC50 ([7]; KA (half maximal constant), pAGR157, FIG. 2C, 2E, 8 h) was 80 µM and 83 µM, the “KA relative to the E274Q mutant” value ([7]; higher than E274Q) was 2 fold and the Fmax ([7]; pAGR157, FIG. 2C, 2E, 8 h) was 7560. The Fmin ([7]; pAGR157, FIG. 2C, 2E, 8 h) was 814, the “n (Hill coefficient)” value ([7]; pAGR157, FIG. 2C, 2E, 8 h) was 1.4 and the “fold induction of PtyrP” value ([8]; overexpression of wild-type TyrR) was 4 fold. For the same compound, the Fmax [8, 15] was 10500, the Fmin [8, 15] was 2900 and the “n (Hill coefficient)” value [8, 15] was 5.5. The EC50 ([8]; wild-type TyrR, pAGR010, FIG. 1C, 8 h, read-out: KA (half maximal constant)) was 73 µM, the EC50 ([9]; KA (half maximal constant), pAGR159, FIG. 2C, 2F, 8 h) was 130 µM and 128 µM and the “KA relative to the E274Q mutant” value ([9]; higher than E274Q) was 3 fold. The Fmax ([9]; pAGR159, FIG. 2C, 2F, 8 h) was 10700, the Fmin ([9]; pAGR159, FIG. 2C, 2F, 8 h) was 1310 and the “n (Hill coefficient)” value ([9]; pAGR159, FIG. 2C, 2F, 8 h) was 0.7. The “fold induction of PtyrP” value [10] was 16 fold, the EC50 ([10]; KA (half maximal constant), pAGR102, FIG. 2C, 2D, 8 h) was 40 µM and 42 µM and the Fmax ([10]; pAGR102, FIG. 2C, 2D, 8 h) was 12800. The Fmin ([10]; pAGR102, FIG. 2C, 2D, 8 h) was 982 and the “n (Hill coefficient)” value ([10]; pAGR102, FIG. 2C, 2D, 8 h) was 2.
